Reference: JP2015020973A, “クロマン化合物塩酸塩の結晶形態及びその製造法” (Nissan Chemical Corp, priority 2013, dated 2015)

Experiments:
[1] = Test Example 2: dissolution test, JP Pharmacopoeia dissolution test 2nd fluid (pH 6.8), paddle method; format: physicochemical; conditions: dissolution test 2nd fluid pH 6.8, 37 °C, paddle 100 rpm, after 120 min
[2] = Test Example 1: dissolution test, JP Pharmacopoeia dissolution test 1st fluid (pH 1.2), paddle method; format: physicochemical; conditions: dissolution test 1st fluid pH 1.2, 37 °C, paddle 100 rpm, at 60 min

Structure (SMILES): COc1cc2c(cc1NS(C)(=O)=O)OC(C)(C)[C@H](O)[C@H]2NCCc1ccccc1.Cl (relative stereo) [A形結晶, N−{(3R*,4S*)−3−ヒドロキシ−6−メトキシ−2,2−ジメチル−4−(フェネチルアミノ)クロマン−7−イル}メタンスルホンアミド塩酸塩]
- dissolution rate [1]: ~80%
- dissolution rate [2]: 90%

Structure (SMILES): COc1cc2c(cc1NS(C)(=O)=O)OC(C)(C)[C@H](O)[C@H]2NCCc1ccccc1 (relative stereo) [フリー体, N−{(3R*,4S*)−3−ヒドロキシ−6−メトキシ−2,2−ジメチル−4−(フェネチルアミノ)クロマン−7−イル}メタンスルホンアミド]
- dissolution rate [1]: ~65%
- dissolution rate [2]: 90%
